Laboratory results: PMC8815882, “Screening the pandemic response box identified benzimidazole carbamates, Olorofim and ravuconazole as promising drug candidates for the treatment of eumycetoma” (PLoS Neglected Tropical Diseases, 2022)
Values after ≈ are worked out from the molar mass of the structure shown. Where two headings read alike, the source gives them in different places.

Assays:
[1] = test system: ten different M. mycetomatis isolates; experiment: MIC / MIC50 determination (XTT) in ten M. mycetomatis isolates; type: cell-based, Madurella mycetomatis; details: Madurella mycetomatis
M. mycetomatis MM55 = experiment: IC50 determination, 2-fold dilution series 16 to 0.03125 μM; type: cell-based, Madurella mycetomatis; details: for IC50 / IC90: Madurella mycetomatis
[2] = test system: M. mycetomatis isolate MM55; experiment: M. mycetomatis grain infection model in G. mellonella larvae, survival; type: in vivo, Galleria mellonella; set-up: In vivo efficacy, Larvae survival %: concentration or dose not given beside the values; details: G. mellonella larvae infected with M. mycetomatis
[3] = test system: M. mycetomatis genome strain MM55; experiment: CLSI M38-A2 based in vitro susceptibility screening (XTT or resazurin), growth at fixed concentration; type: cell-based, Madurella mycetomatis; details: Madurella mycetomatis
[4] = median MIC over ten M. mycetomatis isolates, no asterisk, read-out: MIC50
[5] = MM55, mean of replicates, read-out: IC50 mean
[6] = MM55, replicate 1, read-out: IC50 1 um
[7] = MM55, replicate 2, read-out: IC50 2 um
[8] = MM55, replicate 3, read-out: IC50 3 um

`CCC(C)(C)c1ccc(CC(C)CN2C[C@@H](C)O[C@@H](C)C2)cc1` (some centres unmarked) [MMV1634358, Amorolfine, reference compound] was tested, and the MIC50 [1, 4] was 4 µM (≈ 1.27 µg/mL), the MIC50 ([1]; over the tested M. mycetomatis isolates, read-out: MIC50 mean) was 4 µM (≈ 1.27 µg/mL) and the MIC ([1]; isolate CBS247.48, read-out: MIC CBS247.48) was 4 µM (≈ 1.27 µg/mL). It also gave an MIC ([1]; isolate MM14, read-out: MIC MM14) of 4 µM (≈ 1.27 µg/mL), an MIC ([1]; isolate MM45, read-out: MIC MM45) of 4 µM (≈ 1.27 µg/mL) and an MIC ([1]; isolate MM55, read-out: MIC MM55) of 2 µM (≈ 0.635 µg/mL). The MIC ([1]; isolate P1, read-out: MIC P1) was over 16 µM, the MIC ([1]; isolate ParijsAl1, read-out: MIC ParijsAl1) was 0.25 µM (≈ 0.0794 µg/mL) and the MIC ([1]; isolate Peru72012, read-out: MIC Peru72012) was 16 µM (≈ 5.08 µg/mL). For the same compound, the MIC ([1]; isolate So1, read-out: MIC So1) was 2 µM (≈ 0.635 µg/mL), the MIC ([1]; isolate i1, read-out: MIC i1) was 2 µM (≈ 0.635 µg/mL) and the MIC ([1]; isolate i11, read-out: MIC i11) was 16 µM (≈ 5.08 µg/mL). For the same compound, the “Drug static or cidal” value (M. mycetomatis MM55; M. mycetomatis) was “Static”, the IC50 (M. mycetomatis MM55; MM55, Table 2, M. mycetomatis MM55, read-out: IC50) was 5.72 µM and the IC50 (M. mycetomatis MM55; [5]) was 5.72 µM. For the same compound, the IC90 (M. mycetomatis MM55; MM55, mean of replicates, read-out: IC90 mean) was 10.7 µM, the IC50 (M. mycetomatis MM55; [6]) was 2.45 µM and the IC90 (M. mycetomatis MM55; MM55, replicate 1, read-out: IC90 1 um) was 4.65 µM. It also gave an IC50 (M. mycetomatis MM55; [7]) of 11.7 µM, an IC90 (M. mycetomatis MM55; MM55, replicate 2, read-out: IC90 2 um) of 22.1 µM and an IC50 (M. mycetomatis MM55; [8]) of 3 µM. For the same compound, the IC90 (M. mycetomatis MM55; MM55, replicate 3, read-out: IC90 3 um) was 5.4 µM, the “In vivo efficacy, Enhanced survival compared to control?” value [2] was “no” and the “In vivo efficacy, Larvae survival %” value [2] was 11.1%. It also gave an activity at 25 µM ([3]; 25 uM, mean of three, M. mycetomatis MM55, read-out: Percentage survival at 25um, 25 uM mean) of 0.888%, an activity at 25 µM ([3]; 25 uM, replicate A, M. mycetomatis MM55, read-out: Percentage survival at 25um, 25 um A) of -0.194% and an activity at 25 µM ([3]; 25 uM, replicate B, M. mycetomatis MM55, read-out: Percentage survival at 25um, 25 uM B) of 0.287%. The activity at 25 µM ([3]; 25 uM, replicate C, M. mycetomatis MM55, read-out: Percentage survival at 25um, 25 uM C) was 2.57%, the activity at 100 µM ([3]; 100 uM, mean of three, M. mycetomatis MM55, read-out: Percentage survival at 100um, 100 uM mean) was 8.96% and the activity at 100 µM ([3]; 100 uM, replicate 1, M. mycetomatis MM55, read-out: Percentage survival at 100um, 100 uM A (first replicate column)) was 0.903%. The Percent fungal survival at 100 µM ([3]; 100 uM, replicate 2, M. mycetomatis MM55, read-out: Percentage survival at 100um, 100 uM A (second replicate column)) was 2.35% and the activity at 100 µM ([3]; 100 uM, replicate 3, M. mycetomatis MM55, read-out: Percentage survival at 100um, 100 uM A (third replicate column)) was 23.6%.

Work on `Nc1nc(F)nc2c1ncn2[C@@H]1O[C@H](CO)[C@@H](O)[C@@H]1O` [MMV637413, Fludarabine, reference compound] yielded an MIC50 [1, 4] of 16 µM (≈ 4.56 µg/mL), an MIC ([1]; M. mycetomatis isolate CBS247.48, read-out: MIC CBS247.48) of 16 µM (≈ 4.56 µg/mL) and an MIC ([1]; M. mycetomatis isolate MM14, read-out: MIC MM14) of 16 µM (≈ 4.56 µg/mL). It also gave an MIC ([1]; M. mycetomatis isolate MM45, read-out: MIC MM45) of over 16 µM, an MIC ([1]; M. mycetomatis isolate MM55, read-out: MIC MM55) of 16 µM (≈ 4.56 µg/mL) and an MIC ([1]; M. mycetomatis isolate P1, read-out: MIC P1) of over 16 µM. It also gave an MIC ([1]; M. mycetomatis isolate ParijsAl1, read-out: MIC ParijsAl1) of over 16 µM, an MIC ([1]; M. mycetomatis isolate Peru72012, read-out: MIC Peru72012) of over 16 µM and an MIC ([1]; M. mycetomatis isolate So1, read-out: MIC So1) of 16 µM (≈ 4.56 µg/mL). For the same compound, the MIC ([1]; M. mycetomatis isolate i1, read-out: MIC i1) was over 16 µM, the MIC ([1]; M. mycetomatis isolate i11, read-out: MIC i11) was 16 µM (≈ 4.56 µg/mL) and the MIC50 ([1]; over ten M. mycetomatis isolates, read-out: MIC50 mean) was 16 µM (≈ 4.56 µg/mL). For the same compound, the “Drug static or cidal” value (M. mycetomatis MM55) was “Static”, the IC50 (M. mycetomatis MM55; [5]) was 1.63 µM and the IC90 (M. mycetomatis MM55; MM55, IC90, mean of replicates, read-out: IC90 mean) was 8.89 µM. The IC90 (M. mycetomatis MM55; MM55, IC90, replicate 1, read-out: IC90 1 um) was 20.6 µM, the IC90 (M. mycetomatis MM55; MM55, IC90, replicate 2, read-out: IC90 2 um) was 1.28 µM and the IC90 (M. mycetomatis MM55; MM55, IC90, replicate 3, read-out: IC90 3 um) was 4.8 µM. For the same compound, the IC50 (M. mycetomatis MM55; [6]) was 1.8 µM, the IC50 (M. mycetomatis MM55; [7]) was 0.68 µM and the IC50 (M. mycetomatis MM55; [8]) was 2.4 µM. For the same compound, the IC50 (M. mycetomatis MM55; Table 2, M. mycetomatis MM55, read-out: IC50) was 1.63 µM, the activity at 25 µM ([3]; 25 uM, replicate A, MM55, read-out: Percentage survival at 25um, 25 um A) was 3.41% and the activity at 100 µM ([3]; 100 uM, mean of replicates, MM55, read-out: Percentage survival at 100um, 100 uM mean) was 3.82%. For the same compound, the activity at 100 µM ([3]; 100 uM, replicate 1, MM55, read-out: Percentage survival at 100um, 100 uM A) was 1.86%, the activity at 100 µM ([3]; 100 uM, replicate 2, MM55, read-out: Percentage survival at 100um, 100 uM A) was 1.98% and the activity at 100 µM ([3]; 100 uM, replicate 3, MM55, read-out: Percentage survival at 100um, 100 uM A) was 7.64%. For the same compound, the activity at 25 µM ([3]; read-out: Percentage survival at 25um, 25 uM B) was -4.01%, the activity at 25 µM ([3]; read-out: Percentage survival at 25um, 25 uM C) was 6.32% and the activity at 25 µM ([3]; read-out: Percentage survival at 25um, 25 uM mean) was 1.91%.
